Results published in PMC7594079, “Insights into the Function and Evolution of Taste 1 Receptor Gene Family in the Carnivore Fish Gilthead Seabream (Sparus aurata)” (International Journal of Molecular Sciences, 2020).

Legend:
Format in all cases: cell-based
saT1R2b/R3 = target: T1, saT1R2b/R3 (Sparus aurata, UniProt A0A671TG56+A0A671VZB3); test: saT1R2b/R3 heterodimer transiently transfected in stable pGL3-NFAT-luc-HEK293 (Cl.3) cells, luciferase reporter; details: saT1R2b/R3; tested 1–500 mM
T1 sequence (A0A671TG56 20-821): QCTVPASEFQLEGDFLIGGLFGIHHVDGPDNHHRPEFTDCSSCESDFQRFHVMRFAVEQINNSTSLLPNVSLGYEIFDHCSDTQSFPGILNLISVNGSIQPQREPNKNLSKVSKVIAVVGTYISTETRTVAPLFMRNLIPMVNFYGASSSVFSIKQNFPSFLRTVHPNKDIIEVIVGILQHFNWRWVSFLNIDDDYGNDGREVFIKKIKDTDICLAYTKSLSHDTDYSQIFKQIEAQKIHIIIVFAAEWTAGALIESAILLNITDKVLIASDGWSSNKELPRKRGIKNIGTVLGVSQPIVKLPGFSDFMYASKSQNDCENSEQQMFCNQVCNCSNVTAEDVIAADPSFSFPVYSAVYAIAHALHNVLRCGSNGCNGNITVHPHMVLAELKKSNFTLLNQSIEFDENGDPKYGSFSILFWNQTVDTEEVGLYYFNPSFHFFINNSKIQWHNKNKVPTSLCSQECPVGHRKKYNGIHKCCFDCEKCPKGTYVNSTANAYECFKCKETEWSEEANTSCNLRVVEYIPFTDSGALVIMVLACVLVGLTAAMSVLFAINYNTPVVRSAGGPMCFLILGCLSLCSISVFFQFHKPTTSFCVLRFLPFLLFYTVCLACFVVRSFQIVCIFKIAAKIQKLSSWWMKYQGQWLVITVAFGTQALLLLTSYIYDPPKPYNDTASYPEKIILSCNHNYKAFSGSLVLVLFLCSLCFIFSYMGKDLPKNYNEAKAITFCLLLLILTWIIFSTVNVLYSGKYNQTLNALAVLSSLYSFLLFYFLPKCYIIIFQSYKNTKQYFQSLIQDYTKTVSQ
T1 sequence (A0A671VZB3 24-860): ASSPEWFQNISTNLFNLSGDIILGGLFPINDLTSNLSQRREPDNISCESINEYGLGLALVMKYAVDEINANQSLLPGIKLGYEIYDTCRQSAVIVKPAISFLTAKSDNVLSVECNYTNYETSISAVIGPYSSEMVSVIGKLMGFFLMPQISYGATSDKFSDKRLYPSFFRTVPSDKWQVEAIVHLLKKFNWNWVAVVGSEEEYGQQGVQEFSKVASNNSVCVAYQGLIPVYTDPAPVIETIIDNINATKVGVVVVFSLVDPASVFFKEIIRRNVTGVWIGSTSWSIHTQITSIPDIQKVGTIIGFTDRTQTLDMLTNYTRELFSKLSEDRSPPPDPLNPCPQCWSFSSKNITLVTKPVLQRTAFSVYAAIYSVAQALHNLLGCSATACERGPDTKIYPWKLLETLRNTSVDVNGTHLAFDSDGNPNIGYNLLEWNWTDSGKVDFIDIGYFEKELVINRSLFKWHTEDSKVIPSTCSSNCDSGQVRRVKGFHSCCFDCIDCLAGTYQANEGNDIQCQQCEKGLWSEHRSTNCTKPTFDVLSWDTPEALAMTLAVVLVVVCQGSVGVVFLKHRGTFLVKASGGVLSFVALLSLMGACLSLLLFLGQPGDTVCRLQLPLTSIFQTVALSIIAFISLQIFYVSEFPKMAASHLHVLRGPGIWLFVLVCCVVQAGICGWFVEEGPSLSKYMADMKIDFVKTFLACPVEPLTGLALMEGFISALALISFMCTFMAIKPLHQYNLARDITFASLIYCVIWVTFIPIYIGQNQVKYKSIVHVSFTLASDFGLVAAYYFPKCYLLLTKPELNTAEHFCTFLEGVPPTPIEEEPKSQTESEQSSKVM
Excerpt: (§1) Figure 6 Amino acid Log-dose response curves of activation in heterologous co-transfected (Cl.3) cells with saT1R1/3 (green dots), saT1R2a/3 (red squares) and saT1R2b/3 (black triangles) heterodimers. Evaluation of L-AA responses was based on the RLU mean ± SEM of four independent determinations normalized to the mean response of the same transfections stimulated with reduced assay medium (Basal Medium Eagle w/o L-glutamate (BME) + 1% FBS), and expressed as the percentage relative to basal levels (BL).
(§2) HEK293 cells were cultured in standard medium DMEM (Gibco, Thermo Fisher, Saint Louis, MO, USA) containing 10% FBS, penicillin (100 U/mL) and streptomycin ([…]) at 37 °C, with a humidified atmosphere at 5% CO2. pGL3-NFAT-luc-HEK293 stable clones were generated by co-transfections of pGL3-NFAT-luc and tgCMV/HyTK plasmids (50:1), the latter harboring the hygromycin phosphotransferase gene, using Lipofectamine LTX according to supplier’s protocols (Thermo Fisher, Saint Louis, MO, USA). Initially, HEK293 cells were selected using DMEM containing 400 μg/mL hygromycin B (Sigma, Darmstadt, Germany) in 24-well plates for two weeks; 24 colonies were further grown out in 96-well plates under reduced hygromycin selection (200 µg/mL) for three weeks. Potentially resistant NFAT-luc-HEK293 clones (n = 22) were validated after incubation in assay medium (DMEM + 1% FBS) containing PMA or Ionomycin (Sigma, Darmstadt, Germany) for 18 h (triplicates, 50,000 cells/well). Luciferase activity was quantified with ONE-Glo™ EX Reagent Kit (Promega, Madison, WI, USA) using a 96-microplate TECAN reader (Trading AG, Switzerland).
(§3) saT1Rs (saT1R1, saT1R2a, saT1R2b saT1R3) and saGαi1-2 genes were RT-PCR amplified using 5’ and 3’ flanking primers carrying HindIII and XhoI restriction sites, respectively. Gel-purified fragments were cloned into pGEM-T Easy vectors, re-sequenced, digested and subcloned into pcDNA™3 (Invitrogen, Carlsbad, CA, USA). Effective saT1R cloning into pcDNA™3 was further verified by HindIII/XhoI digestion. Transient co-transfections were done in 6-well plates (confluence ~70–80%) using 100 μL of reduced serum medium (Opti-MEM, Gibco, Thermo Fisher, Saint Louis, MO, USA) containing 150 ng of each selected pcDNA™3 construct, 1:10 charge ratio of Enhanced Green Fluorescent expressing construct (EGFP; positive control), and pBluescript II SK (+) vector DNA (Addgene, Watertown, MA, USA) up to 1 µg of totally transfected DNA. Following 24 h incubation, cells were washed with fresh standard medium and plated in polylysine treated plates for additional 24 h. Cells were then stimulated with L-AAs and sugar compounds for 18 h in a reduced assay medium (BME w/o L-glutamate; Gibco, Thermo Fisher, Saint Louis, MO, USA) + 1% FBS), to prevent unspecific Ca^2+/NFAT signaling activation and potential saT1R desensitization. All L-AAs and sugars used for in vitro experiments were obtained from Merck KGaA (Darmstadt, Germany).

saT1R2a/R3 = target: T2, saT1R2a/R3 (Sparus aurata, UniProt A0A671TK95+A0A671VZB3); test: saT1R2a/R3 heterodimer transiently transfected in stable pGL3-NFAT-luc-HEK293 (Cl.3) cells, luciferase reporter; details: saT1R2a/R3; tested 1–500 mM
T2 sequence (A0A671TK95 20-825): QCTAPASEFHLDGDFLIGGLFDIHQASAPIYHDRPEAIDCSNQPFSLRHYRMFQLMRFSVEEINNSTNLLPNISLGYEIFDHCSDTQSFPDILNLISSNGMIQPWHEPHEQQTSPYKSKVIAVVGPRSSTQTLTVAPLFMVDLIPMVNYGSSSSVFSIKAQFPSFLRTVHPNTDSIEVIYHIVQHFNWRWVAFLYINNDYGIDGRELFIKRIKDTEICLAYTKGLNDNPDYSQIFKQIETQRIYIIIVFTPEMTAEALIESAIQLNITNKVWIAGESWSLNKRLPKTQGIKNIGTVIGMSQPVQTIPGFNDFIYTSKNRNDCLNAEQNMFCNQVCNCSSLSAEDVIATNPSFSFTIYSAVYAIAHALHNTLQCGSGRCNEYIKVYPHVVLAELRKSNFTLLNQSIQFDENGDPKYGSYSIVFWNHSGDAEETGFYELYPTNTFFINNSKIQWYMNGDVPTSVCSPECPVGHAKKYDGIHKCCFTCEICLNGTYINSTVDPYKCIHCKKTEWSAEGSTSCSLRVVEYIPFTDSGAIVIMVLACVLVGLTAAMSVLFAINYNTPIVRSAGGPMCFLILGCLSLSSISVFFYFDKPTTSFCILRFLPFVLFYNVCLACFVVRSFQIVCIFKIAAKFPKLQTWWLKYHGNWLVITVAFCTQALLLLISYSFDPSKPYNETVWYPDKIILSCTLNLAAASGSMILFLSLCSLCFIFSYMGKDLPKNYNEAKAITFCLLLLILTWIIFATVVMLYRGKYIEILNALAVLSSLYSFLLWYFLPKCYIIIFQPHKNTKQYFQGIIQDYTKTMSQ
T2 sequence (A0A671VZB3 24-860): T1 sequence (A0A671VZB3 24-860)
Excerpt: as §1, §2, §3

[1] = test system: pGL3-NFAT-luc reporter (Ca2+/NFAT signaling); test: pGL3-NFAT-luc construct responsiveness in transiently transfected HEK293 cells; details: 10-fold serial dilutions
Excerpt: The luciferase reporter system used in the present study is based on a pGL3-plasmid including three (N)uclear (F)actor of (A)ctivated T cells (NFAT)-responsive elements located upstream of an interleukin-2 (IL2) minimal promoter driving expression of the firefly luciferase reporter gene (pGL3-NFAT-luc plasmid; Addgene (Watertown, MA, USA), cat. number. 17870). To evaluate pGL3-NFAT-luc construct responsiveness, transiently transfected HEK293 cells were stimulated with Phorbol 12-myristate 13-acetate (PMA) and ionomycin, two compounds known to modulate NFAT signaling by mobilization of intracellular Ca^2+ storages.
Figure 4 Evaluation of pGL3-NFAT-luc construct responsiveness to 10-fold serial dilutions to PMA (A) and ionomycin (B) in transiently transfected HEK293 cells. RLU%: Relative Luminescence Unit percentage. […] BL (Basal Levels) = 100% RLU. Different lowercase letters (a,b) on top of bars indicate significant differences (p < 0.05) between concentrations, assessed by one-way ANOVA followed by Tukey’s Multiple Comparison Test (GraphPad Prism version 5.00 Software, La Jolla, CA, USA). […]

Structure (SMILES) | concentration with significant activation (saT1R2b/R3) | concentration with significant activation (saT1R2a/R3) | luminescence response of pGL3-NFAT-luc construct [1]
OC[C@@H]1O[C@@H](O[C@@]2(CO)O[C@@H](CO)[C@H](O)[C@H]2O)[C@@H](O)[C@H](O)[C@H]1O [L-Sucrose] | 100 mM | 100 mM | 
CCCCCCCCCCCCCC(=O)O[C@@H]1[C@@H](C)[C@@]2(O)[C@@H](C=C(CO)C[C@]3(O)C(=O)C(C)=C[C@@H]23)[C@@H]2C(C)(C)[C@]12OC(C)=O [PMA, Phorbol 12-myristate 13-acetate] |  |  | significant luminescence dose-response increases
C[C@H](CCC(=O)O)C[C@H](C)C[C@H](C)C(=O)/C=C(\O)[C@H](C)C[C@H](C)C/C=C/[C@@H](C)[C@@H](O)[C@@H](C)[C@@H](O)C[C@@H]1CC[C@@](C)([C@H]2CC[C@@](C)([C@@H](C)O)O2)O1 [ionomycin] |  |  | significant luminescence dose-response increases
